Measurements: patent US9586943B2, “Bilaterally-substituted tricyclic compounds for the treatment of human immunodeficiency virus type-1 (HIV-1) infection and other diseases” (CENTRO DE INVESTIGACIÓN PRINCIPE FELIPE, priority 2013, dated 2017)
Like-named read-outs stand apart in the source and are kept apart here. Numbered stars: 1 amine (or outer) side, 2 acyl side, 3 side chain; on linkers, the order of the positions; unused ones are H or OH. Suc = O=C(CCC(=O)[*:2])[*:1]

What was measured:
[1] = target: RRE-Rev34-50 interaction (RRE hairpin and frevp); assay: Fluorescence polarization displacement assay of the RRE-Rev34-50 interaction; assay type: binding, HIV-1
[2] = tested on: Staphilococcus aureus (ATCC 35556); assay: Disk diffusion assay (Kirby-Bauer), S. aureus; assay type: cell-based; details: disk potency 20 μg, 8 mm discs, 16-18 hours at 37° C.
[3] = tested on: RRE hairpin; assay: Two-dimensional NMR (TOCSY) titration of the RRE hairpin; assay type: binding, HIV-1; details: D2O, pH 6.0
[4] = tested on: Escherichia coli (ATCC 53868); assay: Disk diffusion assay (Kirby-Bauer), E. coli; assay type: cell-based; details: disk potency 20 μg, 8 mm discs, 16-18 hours at 37° C.
[5] = target: RRE RNA hairpin (internal loop IIB); assay: SPR analysis of interaction with RRE RNA hairpin; assay type: binding, HIV-1
[6] = Cellular viability (CellTiter Glo); assay type: cell-based; details: human, MT-2 cells; 48 h, CellTiter Glo; read-out: CC50 (celular viability)
[7] = tested on: HIV-1 (NL4.3-Ren); assay: microbe, parasite or virus in culture; assay type: cell-based; details: for EC50: Human immunodeficiency virus 1, 48 h, read-out: EC50 (NL4.3-Ren)
[8] = target: RREc hairpin; assay: SPR binding specificity relative to control RREc hairpin; set-up: species or system HIV-1
Experimental: (§1) The interaction of these biphenyl and terphenyl compounds with the RRE RNA hairpin (SEQ. ID. No 1) was analysed using surface plasmon resonance (SPR) experiments(19). In addition to the RRE, two control RREc (SEQ. ID. No 2) and TARc (SEQ. ID. No 3) hairpins were also immobilised on the chips. In the RREc hairpin the internal loop forming the Rev high-affinity binding site is replaced with a G:G opposition, whereas in the TARc hairpin this loop is substituted with the HIV-1 Tat-binding UCU bulge(20). In this way, applicants could simultaneously assess the interaction of each ligand with RRE, RREc and TARc, obtaining important information about binding selectivity. In addition, the SPR methodology allows deduction of binding stoichiometries, which are likewise related to the specificity of the interaction between a ligand and a given RNA species. These are key considerations in the nucleic acid recognition field(4, 5, 14).
(§2) The Surface Plasmon Resonance (SPR) experiments were carried out at 25° C. with a Biacore T100 optical biosensor system, 4-channel streptavidin-derivatized Series S SA chips, and either 10 mM MES (pH 6.25), 150 mM NaCl, 1 mM EDTA and 0.005% P20 or 10 mM HEPES pH 7.4, 150 mM NaCl, 3 mM EDTA and 0.005% P20 aqueous solutions as mobile phases. After immobilizing approximately 300 response units (RU) of the RRE, RREc and TARc RNA hairpins on the chips, the compounds were injected during 10-minute periods at a flow rate of 20 μL/min and at concentrations generally ranging from 0.01 μM to 100.0 μM, and then allowed to dissociate for 10 more minutes. The RNA surfaces were regenerated with solutions containing 0.5 to 1 M NaCl and 10 to 100 mM NaOH, depending on the ligand.
(§3) RNA-ligand SPR equilibrium dissociation constants (Kd) were determined by fitting the sensorgrams to one-site or two-site equations:
(§4) [formula] [formula] where RU is the response in the steady-state region of the sensorgrams, C is the concentration of free compound in equilibrium with the complex, RUmax is the maximum response and RI is an offset term accounting for the bulk refractive index contribution of the sample. In these models, Kd, RUmax and RI are adjustable parameters, and the stoichiometry of each binding site was determined by comparing the fitted RUmax values with the predicted ones, calculated from the molecular weights of RNA and compound and the amount of RNA in the flow cell(32). The two-site equation was only utilized if it provided a clear curve-fitting improvement over the one-site model. The specificity of the RRE interaction was quantified by calculating the Kd(RREc)/Kd(RRE) and Kd(RRE)/Kd(TARc) ratios. All SPR experiments were double-referenced(33).

[9] = target: TARc hairpin; assay: SPR binding specificity relative to control TARc hairpin; set-up: species or system HIV-1
Experimental: as §1, §2, §3
as §4, with “The specificity of the RRE interaction was quantified by calculating the Kd(RREc)/Kd(RRE) and Kd(RRE)/Kd(TARc) ratios.” left out

[10] = tested on: MT-2 cells; assay: Cellular viability (CellTiter Glo); assay type: cell-based
[11] = read-out: IC50 (RRE-Rev 50% inhibitory concentration), fluorescence polarization, 25° C., 60 nM RRE and 10 nM frevp
[12] = 25° C., pH 6.3, high affinity site when two-site model, JB-399 and IIS-530: ligand range 0.1-25 μM, read-out: Kd(RRE)
[13] = 25° C., pH 7.4, high affinity site when two-site model, footnote d compounds: ligand range 0.1-25 μM, read-out: Kd(RRE)

Row | Compound | IC50 [1, 11] [µM] | disk susceptibility of S. aureus (diameter of the inhibition area) [2] | disk susceptibility of E. coli (diameter of the inhibition area) [4] | Kd [5, 12] [µM] | CC50 at 48 h [6] [µM] | EC50 [7] [µM] | Kd(TARc)/Kd(RRE) ([9]; 25° C., pH 6.3) | also measured
1 | COc1cc(CCN)c(-c2c(CCN)cc(OC)cc2CCN)c(CCN)c1 [SC-30, 2,2′,2″,2′″-(4,4′-dimethoxy-[1,1′-biphenyl]-2,2′,6,6′-tetrayl)tetraethanamine] | 309 ± 68.9 | inactive | inactive | > 100 | > 100 | 50 to 100 | – | RRE interaction by NMR chemical shift perturbation (in words) [3]: unspecific
2 | succynyl-TRQARRNRRRRWRERQRAAAAR-amide (Suc-TRQARRNRRRRWRERQRAAAAR-NH2; SMILES C[C@H](NC(=O)[C@H](C)NC(=O)[C@H](C)NC(=O)[C@H](CCCNC(=N)N)NC(=O)[C@H](CCC(N)=O)NC(=O)[C@H](CCCNC(=N)N)NC(=O)[C@H](CCC(=O)O)NC(=O)[C@H](CCCNC(=N)N)NC(=O)[C@H](Cc1c[nH]c2ccccc12)NC(=O)[C@H](CCCNC(=N)N)NC(=O)[C@H](CCCNC(=N)N)NC(=O)[C@H](CCCNC(=N)N)NC(=O)[C@H](CCCNC(=N)N)NC(=O)[C@H](CC(N)=O)NC(=O)[C@H](CCCNC(=N)N)NC(=O)[C@H](CCCNC(=N)N)NC(=O)[C@H](C)NC(=O)[C@H](CCC(N)=O)NC(=O)[C@H](CCCNC(=N)N)NC(=O)[C@@H](NC(=O)CCC(=O)O)[C@@H](C)O)C(=O)N[C@@H](C)C(=O)N[C@@H](CCCNC(=N)N)C(N)=O) [revp, reference compound] | – | – | – | – | – | – | – | Kd(RREc)/Kd(RRE) [8]: 14.5; Ki ([1]; calculated from IC50, read-out: Ki inhibition constant): 0.0041 ± 0.0008 µM; Kd(TARc)/Kd(RRE) [9]: 4.4; Kd ([5]; one-site model, read-out: equilibrium dissociation constant Kd (RRE)): 0.0042 ± 0.0034 µM
3 | COc1cc(CCN)c(-c2ccc(-c3cc(CCN)c(O)c(CCN)c3)cc2)c(CCN)c1 [JB-399, 2″,3,5,6″-tetrakis(2-aminoethyl)-4″-methoxy-[1,1′:4′,1″-terphenyl]-4-ol] | 23.4 ± 3.6 | – | – | 14.4 ± 6.8 | > 100 | > 100 | 11.7 | –
4 | NC[C@H]1O[C@H](O[C@H]2[C@H](O)[C@@H](O[C@H]3O[C@H](CO)[C@@H](O)[C@H](N)[C@H]3O)[C@H](N)C[C@@H]2N)[C@H](N)[C@@H](O)[C@@H]1O [Kanamycin B, kanamycin B] | – | 16.7 ± 1.2 | 20.0 ± 2.1 | – | – | – | – | –
5 | COc1cc(CCN)c(-c2ccc(-c3cc(CCN)c(OCC4CCCCC4)c(CCN)c3)c(OC)c2)c(CCN)c1 [IIS-530, 2,2′,2″,2′″-(4″-(cyclohexylmethoxy)-3′,4-dimethoxy-[1,1′:4′,1″-terphenyl]-2,3″,5″,6-tetrayl)tetraethanamine] | 75.5 ± 39.9 | – | – | 46.2 ± 32 | > 100 | > 100 | 4.0 | Kd(RREc)/Kd(RRE) ([8]; 25° C., pH 6.3): 1.3
6 | NC[C@H]1O[C@H](O[C@H]2[C@H](O)[C@@H](O[C@H]3O[C@H](CO)[C@@H](O)[C@H](N)[C@H]3O)[C@H](N)C[C@@H]2N)[C@H](O)[C@@H](O)[C@@H]1O [Kanamycin A, kanamycin A] | – | 16.5 ± 1.1 | 22.0 ± 2.0 | – | – | – | – | –
7 | COc1cc(CCN)c(-c2ccc(-c3cc(CCN)c(OCc4ccccc4)c(CCN)c3)c(OC)c2)c(CCN)c1 [IIS-311, 2,2′,2″,2′″-(4″-(benzyloxy)-3′,4-dimethoxy-[1,1′:4′,1″-terphenyl]-2,3″,5″,6-tetrayl)tetraethanamine] | 162 ± 118 | – | – | 9.4 ± 5.7 | > 100 | > 100 | 3.2 | Kd(RREc)/Kd(RRE) ([8]; 25° C., pH 6.3): 4.9
8 | COc1cc(CCN)c(-c2cc(CCN)c(O)c(CCN)c2)c(CCN)c1 [JB-398, 2′,3,5,6′-tetrakis(2-aminoethyl)-4′-methoxy-[1,1′-biphenyl]-4-ol] | – | – | – | 31.1 ± 5 | > 100 | > 100 | 3.7 | IC50 ([1]; fluorescence anisotropy, read-out: IC50 (RRE-Rev34-50 inhibition)): 22.1 µM; RRE interaction by NMR chemical shift perturbation (in words) [3]: weak
9 | NC[C@H]1O[C@H](O[C@H]2[C@H](O)[C@@H](O[C@H]3O[C@H](CO)[C@@H](O)[C@H](N)[C@H]3O)[C@H](N)C[C@@H]2N)[C@H](N)C[C@@H]1O [Tobramycin, tobramycin] | – | 17.6 ± 0.8 | 18.8 ± 2.2 | – | – | – | – | –
10 | CCc1cc(-c2c(CCN)cc(OC)cc2CCN)ccc1-c1cc(CCN)c(O)c(CCN)c1 [IIS-792, 2″,3,5,6″-tetrakis(2-aminoethyl)-2′-ethyl-4″-methoxy-[1,1′:4′,1″-terphenyl]-4-ol] | 93.6 ± 24.4 | – | – | – | > 100 | 46.3 | – | Kd(RREc)/Kd(RRE) ([8]; 25° C., pH 7.4): 1.2; Kd(TARc)/Kd(RRE) ([9]; 25° C., pH 7.4): 1.6; Kd [5, 13]: 8.1 ± 1.8 µM; cellular toxicity (in words) [10]: no cellular toxicity; inhibition of HIV-1 replication (in words) [7]: inhibited HIV-1 replication
11 | COc1cc(CCN)c(-c2ccc(-c3cc(CCN)c(OCc4ccc(C(F)(F)F)cc4)c(CCN)c3)c(OC)c2)c(CCN)c1 [IIS-478, 2,2′,2″,2′″-(3′,4-dimethoxy-4″-((4-(trifluoromethyl)benzyl)oxy)-[1,1′:4′,1″-terphenyl]-2,3″,5″,6-tetrayl)tetraethanamine] | 232 ± 32.7 | inactive | inactive | – | > 100 | > 100 | – | Kd(RREc)/Kd(RRE) ([8]; 25° C., pH 7.4): 10.3; Kd(TARc)/Kd(RRE) ([9]; 25° C., pH 7.4): 9.6; Kd [5, 13]: 14 ± 5.1 µM
12 | CC1(C)S[C@@H]2[C@H](NC(=O)[C@H](N)c3ccccc3)C(=O)N2[C@H]1C(=O)O [Ampicillin, ampicillin] | – | 38.1 ± 1.6 | 25.6 ± 1.7 | – | – | – | – | –
